Earlier results on 1 molecule are cited in patent US20090196914A1, “LIPOSOMAL L-CARNITINE” (priority 2002, published 2009).

Each structure is given as a SMILES string.

The conditions of this series: oral drug.

By bioavailability is commonly meant the share of a dose that reaches the circulation, judged against a reference dose that is usually intravenous. Take `CCC(=O)O[C@H](CC(=O)[O-])C[N+](C)(C)C` [Propionyl-L-carnitine]: the bioavailability is given as 15%.
